Measured values taken from publication PMC7571145, “Multistep Synthesis and In Vitro Anticancer Evaluation of 2-Pyrazolyl-Estradiol Derivatives, Pyrazolocoumarin-Estradiol Hybrids and Analogous Compounds” (Molecules, 2020).

What was measured:
HeLa cells = assay: MTT cytotoxicity assay on HeLa cells; assay type: cell-based; details: 72 h; for primary growth inhibitory screen, cell viability, HeLa: 2.5 µM, mean±SD, untreated control about 100; for IC50: Homo sapiens, HeLa, compounds 1-7 µM, mean ± SD, read-out: IC50 on HeLa
Method: (§1) Cytotoxicity screens were performed to assess the in vitro anticancer activity of the synthesized A-ring-linked 2-pyrazoles of estradiol, the pyrazolocoumarin-estradiol hybrids, and their structurally simplified non-steroidal analogs on various cancerous cell lines such as MCF-7, PC-3, DU145, and HeLa and on non-cancerous MRC-5 fibroblasts. The 2-acetyl-phenol starting materials (4, 5, and 15) were also included for comparison. All compounds were applied in 2.5 µM concentration for 72 h. The obtained cell viability data were used to construct a heat map (Figure 2) in order to select compounds that exert cancer cell line-specific cytotoxicity. […] Furthermore, some compounds discriminated only DU145 cells and could eliminate these type of prostate cancer cells.
(§2) To understand structure-function relationships, we also included the structural analogs of the selected compounds, namely 7a (C-17 acetate of 8a), 8c (C-17 OH counterpart of 7c), and 9a (steroidal pair of 19a) into subsequent analyses. […] For this, compounds were applied on MCF-7, PC-3, DU145, and HeLa and on non-cancerous MRC-5 fibroblasts in various concentrations for 72 h or were treated with cisplatin at different concentrations. On the viability data, dose–response curves were fitted (Figure S1) and IC50 values were calculated accordingly (Table 3). In agreement with the primary cytotoxicity screen (Table S1), the obtained IC50 concentrations clearly indicated which compound was selectively effective on one or more cancer cell lines. […] Typically, acetylated steroidal pyrazoles were less favorable than deacetylated counterparts due to reduced cancer cell selectivity (7c, 10a).
(§3) To evaluate the in vitro pharmacological effects of the synthesized molecules, each compound was first dissolved in cell culture grade DMSO (Sigma) to a final concentration of 10 mM. Using MTT colorimetric assay, the cytotoxicity of these compounds was evaluated on cancerous (MCF-7, HeLa, DU145, PC-3) and non-cancerous (MRC-5) cell lines. Briefly, 5000 cells/well of each cell line were seeded in 96-well plates and were left to grow overnight in a 5% CO2 atmosphere at 37 °C. On the next day, cells were treated with each derivative separately, in case of the primary screen, or only with the selected compounds upon IC50 determination. Cells were incubated with the test compounds for 72 h in a 5% CO2 atmosphere at 37 °C. End point was measured by incubating cells for 1 h with 0.5 mg/mL of MTT reagent (Serva) dissolved in serum free culture medium. The formazan crystals formed by metabolically active cells were later dissolved in DMSO. Optical density of the obtained solutions was measured at 570 nm using a Synergy HTX plate reader. […] The analysis and conclusions were made based on three independent experiments. Normalized data were analyzed and the heat map was constructed using GraphPad Prism 7 software.

DU145 cells = assay: MTT cytotoxicity assay on DU145 prostate cancer cells; assay type: cell-based; details: for primary growth inhibitory screen, cell viability, DU145: 2.5 µM, 72 h, mean±SD, untreated control about 100; for IC50: Homo sapiens, DU-145, 72 h, compounds 1-7 µM, mean ± SD, read-out: IC50 on DU145
Method: as §1, §2, §3

MRC-5 fibroblasts = assay: MTT cytotoxicity assay on non-cancerous MRC-5 fibroblasts; assay type: cell-based; details: 72 h; for primary growth inhibitory screen, cell viability, MRC-5 / effect on non-cancerous fibroblasts: 2.5 µM; for primary growth inhibitory screen, cell viability, MRC-5 / IC50: MTT; for primary growth inhibitory screen, cell viability, MRC-5: mean±SD, untreated control about 100; for effect on non-cancerous fibroblasts: based on the heat map; for IC50: Homo sapiens, MRC5, compounds 1-7 µM, mean ± SD, read-out: IC50 on MRC-5
Method: as §1, §2, §3

PC-3 cells = assay: MTT cytotoxicity assay on PC-3 prostate cancer cells; assay type: cell-based; details: for primary growth inhibitory screen, cell viability, PC-3: 2.5 µM, 72 h, mean±SD, untreated control about 100; for IC50: Homo sapiens, PC-3, 72 h, compounds 1-7 µM, mean ± SD, read-out: IC50 on PC-3
Method: as §1, §2, §3

MCF-7 cells = assay: MTT cytotoxicity assay on MCF-7 cells; assay type: cell-based; details: for primary growth inhibitory screen, cell viability, MCF-7: 2.5 µM, 72 h, mean±SD, untreated control about 100; for IC50: Homo sapiens, MCF7, 72 h, compounds 1-7 µM, mean ± SD, read-out: IC50 on MCF-7
Method: as §1, §2, §3

| Compound | primary growth inhibitory screen, cell viability, HeLa (HeLa cells) | primary growth inhibitory screen, cell viability, DU145 (DU145 cells) | primary growth inhibitory screen, cell viability, MRC-5 (MRC-5 fibroblasts) | primary growth inhibitory screen, cell viability, PC-3 (PC-3 cells) | melting point | primary growth inhibitory screen, cell viability, MCF-7 (MCF-7 cells) | IC50 (HeLa cells) | IC50 (DU145 cells) | effect on non-cancerous fibroblasts (MRC-5 fibroblasts) | IC50 (MRC-5 fibroblasts) | IC50 (PC-3 cells) | IC50 (MCF-7 cells) |
| --- | --- | --- | --- | --- | --- | --- | --- | --- | --- | --- | --- | --- |
| CC(=O)O[C@H]1CC[C@H]2[C@@H]3CCc4cc5oc(=O)c6cn(-c7ccc(Cl)cc7)nc6c5cc4[C@H]3CC[C@]12C [Compound 9c] | 75.7±1.7 | ≥ 100±0.9 | 89.5±8.7 | 94.1±4.2 | 283 to 285 °C | 91.1±3.1 |  |  |  |  |  |  |
| CC(=O)O[C@H]1CC[C@H]2[C@@H]3CCc4cc(O)c(-c5nn(-c6ccccc6)cc5CO)cc4[C@H]3CC[C@]12C [Compound 10a] | 83.2±2.0 | ≥ 100±15.8 | 93.6±1.7 | 63.6±17.8 | 257 to 259 °C | 73.5±7.2 |  |  |  |  |  |  |
| CC(=O)O[C@H]1CC[C@H]2[C@@H]3CCc4cc(O)c(-c5nn(-c6ccc(C)cc6)cc5CO)cc4[C@H]3CC[C@]12C [Compound 10b] | 68.3±2.2 | ≥ 100±6.8 | 96.9±3.8 | 88.0±5.6 | 254 to 256 °C | 87.6±0.7 |  |  |  |  |  |  |
| CC(=O)O[C@H]1CC[C@H]2[C@@H]3CCc4cc(O)c(-c5nn(-c6ccc(Cl)cc6)cc5CO)cc4[C@H]3CC[C@]12C [Compound 10c] | 72.4±4.2 | 77.3±6.3 | 96.4±10.1 | 81.6±6.8 | 288 to 290 °C | 63.2±2.2 |  |  |  |  |  |  |
| C[C@]12CC[C@@H]3c4cc(-c5nn(-c6ccccc6)cc5CO)c(O)cc4CC[C@H]3[C@@H]1CC[C@@H]2O [Compound 11a] | 75.4±1.1 | 98.2±5.4 | ≥ 100±8.2 | 59.7±3.2 | 141 to 143 °C | 93.4±3.7 | 4.3 ± 1 µM | > 7 µM | no or very mild effect | > 7 µM | 2.9 ± 1.3 µM | 6.8 ± 1 µM |
| Cc1ccc(-n2cc(CO)c(-c3cc4c(cc3O)CC[C@@H]3[C@@H]4CC[C@]4(C)[C@@H](O)CC[C@@H]34)n2)cc1 [Compound 11b] | 70.1±4.5 | 97.5±10.1 | ≥ 100±2.2 | 74.3±2.3 | 201 to 203 °C | 80.4±2.9 |  |  |  |  |  |  |
| C[C@]12CC[C@@H]3c4cc(-c5nn(-c6ccc(Cl)cc6)cc5CO)c(O)cc4CC[C@H]3[C@@H]1CC[C@@H]2O [Compound 11c] | 77.9±1.5 | 127.1±4.9 | ≥ 100±8.4 | 87.1±3.8 | 240 to 242 °C | ≥ 100±0.7 |  |  |  |  |  |  |
| CC(=O)c1cc2c(cc1O)CCCC2 [Compound 15, 3-Acetyl-5,6,7,8-tetrahydro-2-naphthol] | 53.8±8.3 | ≥ 100±6.7 | ≥ 100±3.7 | ≥ 100±2.2 | 70 to 72 °C | ≥ 100±1.9 | 3.6 ± 1.2 µM | > 7 µM | no or very mild effect | > 7 µM | > 7 µM | > 7 µM |
| O=Cc1cn(-c2ccccc2)nc1-c1cc2c(cc1O)CCCC2 [Compound 17a, 3′-(3-Hydroxy-5,6,7,8-tetrahydronaphthalen-2-yl)-1′-phenyl-1′H-pyrazole-4′-carbaldehyde] | 53.7±3.3 | ≥ 100±6.4 | ≥ 100±7.3 | 71.0±20.9 | 137 to 138 °C | ≥ 100±2.3 | 2.2 ± 1.1 µM | 5.62 ± 1 µM | no or very mild effect | 6.26 ± 1.1 µM | 4.3 ± 1 µM | 5.17 ± 1 µM |
| Cc1ccc(-n2cc(C=O)c(-c3cc4c(cc3O)CCCC4)n2)cc1 [Compound 17b, 3′-(3-Hydroxy-5,6,7,8-tetrahydronaphthalen-2-yl)-1′-(4″-tolyl)-1′H-pyrazole-4′-carbaldehyde] | ≥ 100±3.9 | ≥ 100±16.8 | ≥ 100±14.5 | ≥ 100±3.0 | 151 to 153 °C | 93.2±6.0 |  |  |  |  |  |  |
| O=Cc1cn(-c2ccc(Cl)cc2)nc1-c1cc2c(cc1O)CCCC2 [Compound 17c, 1′-(4″-Chlorophenyl)-3′-(3-hydroxy-5,6,7,8-tetrahydronaphthalen-2-yl)-1′H-pyrazole-4″-carbaldehyde] | ≥ 100±4.0 | 80.3±10.8 | ≥ 100±4.0 | 61.9±2.8 | 182 to 184 °C | 77.5±4.6 | 6.23 ± 1 µM | > 7 µM | no or very mild effect | 5.72 ± 1.1 µM | 4.39 ± 1 µM | 4.12 ± 1 µM |
| OCc1cn(-c2ccccc2)nc1-c1cc2c(cc1O)CCCC2 [Compound 18a, 3-(4′-(Hydroxymethyl)-1′-phenyl-1′H-pyrazol-3′-yl)-5,6,7,8-tetrahydro-2-naphthol] | ≥ 100±6.5 | 87.0±18.2 | ≥ 100±0.1 | 91.5±12.9 | 135 to 137 °C | 98.0±7.1 |  |  |  |  |  |  |
